Where “and” joins values, the source holds several entries; their conditions need not be identical. Equal entries are not always repeated.
System: 454973-116-R2-J3-PDC complex spheroid viability
Assay: Anticancer human tumor 454973-116-R2-J3-PDC patient-derived pancreatic carcinoma cell line growth inhibition [POLQ]
Details: for viability, T/C: stronger effect = lower value
Description: Multicellular complex tumor spheroid response to Polymerase (POL) inhibitors (novobiocin, ART-558, RP6685) in combination with a variety of drugs and investigational agents in selected tumor cell lines
The POL inhibitors (novobiocin, ART-558, and RP6685) were evaluated both individually and in combination with standard of care and investigational anticancer small molecules within a complex spheroid model of solid tumors. . Complex spheroids include a stromal component modeled by human endothelial cells (HUVEC) and fibroblasts modeled by human mesenchymal stem cells (MSCs). The concentration ranges selected for each drug and investigational agent were based upon clinically achievable concentrations if the clinical Cmax of the agent was known.
Compounds. The drugs and investigational agents: novobiocin (NSC847541), ART-558 (NSC835418), RP-6685 (NSC848927), peposertib (NSC802822), ceralasertib (NSC780249), elimusertib (NSC800525), camonsertib (NSC841442), AZD-1390 (NSC803789), olaparib (NSC753686), talazoparib (NSC767125), rucaparib (NSC756644), sotorasib (NSC818433), MRTX-1133 (NSC836407), SN-38 (NSC673596), topotecan (NSC609699), epotoside (NSC141540), doxorubicin (NSC123127), gemcitabine (NSC613327), 5-fluorouracil (NSC19893), paclitaxel (NSC125973), vemurafenib (NSC761431), MSA-2 (NSC828583), SN-011 (NSC837082), adavosertib (NSC754352), prexasertib (NSC758257), carboplatin (NSC241240) and oxaliplatin (NSC266046), were obtained from the National Cancer Institute (NCI) Developmental Therapeutics Program Chemical Repository (21). The FDA-approved anticancer drug set is available from the Developmental Therapeutics Program at https://dtp.cancer.gov/organization/dscb/obtaining/. […] The stock solutions were prepared in dimethyl sulfoxide (DMSO, Sigma-Aldrich, St. Louis, MO, cat. D2650), except for the platinum compounds which were prepared in saline (Quality Biological, Gaithersburg, MD, cat. 114-055-101), at 800-fold the tested concentration and stored at -70 degrees C prior to their use. All drugs and investigational agents were tested over a range starting from a high concentration at or near the clinical Cmax and decreasing in half-log increments. If the clinical Cmax for an agent had not been determined, the highest concentration tested was 10 microM, except for SN-38, which was tested at a high concentration of 1 microM.
Cell Culture. All cells were maintained in an incubator at 37 degrees C and 5% CO2 with 95% humidity. The PDC lines were cultured according to standard operating procedures established by the NCI PDMR (https://pdmr.cancer.gov). Table 3 of the manuscript, lists the cell lines along with the number of the three cell types plated to form the mct-spheroids and media for tumor cell growth. After thawing, all PDC lines, except 997537-175-T-J1-PDC and 415267-285-R-J2-PDC, were cultured in Matrigel-coated flasks prepared with a working solution of 1X Ham's F-12 nutrient mix, without supplementation (Thermo Fisher Scientific, cat. 11765054), 100 U/mL penicillin-streptomycin (Thermo Fisher Scientific, cat. 15140122), and 2.5% Matrigel (Corning Inc., Corning, NY, cat. 354248) for the first three passages. The two PDC lines 997537-175-T-J1-PDC and 415267-285-R-J2-PDC were cultured on uncoated flasks. The 857933-349-R-J2-PDC line was cultured in 6C/Colon 1B media containing advanced DMEM/F-12 (Thermo Fisher Scientific, cat. 12634028), 10 mM HEPES (Thermo Fisher Scientific, cat. 15630080), 1X GlutaMAX supplement (Thermo Fisher Scientific, cat. 35050061), 0.1 mg/mL primocin (InvivoGen, San Diego, CA, cat. ant-pm-2), 10% defined fetal bovine serum, heat inactivated (HyClone Laboratories Inc., Logan, UT, cat. SH30070.03HI), 50% L-WRN conditioned media (ATCC, cat. CRL-3276), 1.25 mM N-Acetyl-L-cysteine (Sigma-Aldrich, cat. A9165), 10 mM nicotinamide (Sigma-Aldrich, cat. N0636), 1X B-27 supplement (Thermo Fisher Scientific, cat. 17504044), 1X N-2 supplement (Thermo Fisher Scientific, cat. […]
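Further: spheroids exposed to drugs for seven days before measurement.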
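Wherever viability, T/C is given: percent viability relative to DMSO vehicle control wells taken as 100%.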

## Cn1ncnc1[C@H]1c2n[nH]c(=O)c3cc(F)cc(c23)N[C@@H]1c1ccc(F)cc1
Compound 0.000316 µM
  viability, T/C: 112% and 102% (2×)
Compound 0.001 µM
  viability, T/C: 91.7% and 103% and 104%
Compound 0.00316 µM
  viability, T/C: 92.2% and 107% and 93.9%
Compound 0.01 µM
  viability, T/C: 95.1% and 86.6% and 101%
Compound 0.0316 µM
  viability, T/C: 111% and 86.4% and 102%
Compound 0.1 µM
  viability, T/C: 89.9% and 81.5% and 91.9%
Curve of compound
  IC50: > 0.1 µM

## COc1cccc2c1C(=O)c1c(O)c3c(c(O)c1C2=O)CC(O)(C(=O)CO)CC3OC1CC(N)C(O)C(C)O1 (stereo not given)
Compound 0.0316 µM
  viability, T/C: 73.1% and 56.1% and 76.5%
Compound 0.1 µM
  viability, T/C: 29.5% and 17.3% and 24.4%
Compound 0.316 µM
  viability, T/C: 22.2% and 15.9% and 20.4%
Compound 1 µM
  viability, T/C: 9.63% and 3.16% and 7.36%
Compound 3.16 µM
  viability, T/C: 0.59% and 0.89% and 0.65%
Compound 10 µM
  viability, T/C: 0.49% and 0.17% and 1.33%
Curve of compound
  IC50: 0.0626 µM and 0.0375 µM and 0.0601 µM

## COc1cc2cc(C(=O)CCC(=O)O)sc2cc1OC + COC1C(OC(N)=O)C(O)C(Oc2ccc3c(O)c(NC(=O)c4ccc(O)c(CC=C(C)C)c4)c(=O)oc3c2C)OC1(C)C
Curve of first compound, second compound 0.0316 µM
  IC50: > 10 µM
Curve of first compound, second compound 0.1 µM
  IC50: > 10 µM
Curve of first compound, second compound 0.316 µM
  IC50: > 10 µM
Curve of first compound, second compound 1 µM
  IC50: > 10 µM
Curve of first compound, second compound 3.16 µM
  IC50: > 10 µM
Curve of first compound, second compound 10 µM
  IC50: > 10 µM
Second compound 0.0316 µM, first compound 0.0316 µM
  viability, T/C: 95.3%
Second compound 0.0316 µM, first compound 0.1 µM
  viability, T/C: 100%
Second compound 0.0316 µM, first compound 0.316 µM
  viability, T/C: 102%
Second compound 0.0316 µM, first compound 1 µM
  viability, T/C: 121%
Second compound 0.0316 µM, first compound 3.16 µM
  viability, T/C: 113%
Second compound 0.0316 µM, first compound 10 µM
  viability, T/C: 96%
Second compound 0.1 µM, first compound 0.0316 µM
  viability, T/C: 101%
Second compound 0.1 µM, first compound 0.1 µM
  viability, T/C: 115%
Second compound 0.1 µM, first compound 0.316 µM
  viability, T/C: 99.3%
Second compound 0.1 µM, first compound 1 µM
  viability, T/C: 118%
Second compound 0.1 µM, first compound 3.16 µM
  viability, T/C: 111%
Second compound 0.1 µM, first compound 10 µM
  viability, T/C: 102%
Second compound 0.316 µM, first compound 0.0316 µM
  viability, T/C: 109%
Second compound 0.316 µM, first compound 0.1 µM
  viability, T/C: 110%
Second compound 0.316 µM, first compound 0.316 µM
  viability, T/C: 120%
Second compound 0.316 µM, first compound 1 µM
  viability, T/C: 110%
Second compound 0.316 µM, first compound 3.16 µM
  viability, T/C: 104%
Second compound 0.316 µM, first compound 10 µM
  viability, T/C: 97.2%
Second compound 1 µM, first compound 0.0316 µM
  viability, T/C: 107%
Second compound 1 µM, first compound 0.1 µM
  viability, T/C: 102%
Second compound 1 µM, first compound 0.316 µM
  viability, T/C: 127%
Second compound 1 µM, first compound 1 µM
  viability, T/C: 110%
Second compound 1 µM, first compound 3.16 µM
  viability, T/C: 107%
Second compound 1 µM, first compound 10 µM
  viability, T/C: 93.8%
Second compound 3.16 µM, first compound 0.0316 µM
  viability, T/C: 110%
Second compound 3.16 µM, first compound 0.1 µM
  viability, T/C: 103%
Second compound 3.16 µM, first compound 0.316 µM
  viability, T/C: 105%
Second compound 3.16 µM, first compound 1 µM
  viability, T/C: 112%
Second compound 3.16 µM, first compound 3.16 µM
  viability, T/C: 105%
Second compound 3.16 µM, first compound 10 µM
  viability, T/C: 93%
Second compound 10 µM, first compound 0.0316 µM
  viability, T/C: 114%
Second compound 10 µM, first compound 0.1 µM
  viability, T/C: 102%
Second compound 10 µM, first compound 0.316 µM
  viability, T/C: 93.6%
Second compound 10 µM, first compound 1 µM
  viability, T/C: 100%
Second compound 10 µM, first compound 3.16 µM
  viability, T/C: 99.4%
Second compound 10 µM, first compound 10 µM
  viability, T/C: 90.5%

## CC1COCCN1c1cc(-c2ccnn2C)c2ccnc(-c3ccn[nH]3)c2n1 (stereo not given)
Compound 0.0316 µM
  viability, T/C: 91.5% and 96.9% and 97.4%
Compound 0.1 µM
  viability, T/C: 75.7% and 73.8% and 55.7%
Compound 0.316 µM
  viability, T/C: 42.8% and 37.2% and 20.8%
Compound 1 µM
  viability, T/C: 20.7% and 22.5% and 12.6%
Compound 3.16 µM
  viability, T/C: 21.3% and 24.4% and 12.3%
Compound 10 µM
  viability, T/C: 25% and 30% and 17.2%
Curve of compound
  IC50: 0.238 µM and 0.208 µM and 0.121 µM

## COc1cc2cc(C(=O)CCC(=O)O)sc2cc1OC
Compound 0.0316 µM
  viability, T/C: 101% and 105% (2×)
Compound 0.1 µM
  viability, T/C: 101% (2×) and 99.3%
Compound 0.316 µM
  viability, T/C: 100% and 105% and 108%
Compound 1 µM
  viability, T/C: 96.9% and 103% and 106%
Compound 3.16 µM
  viability, T/C: 94.2% and 105% and 114%
Compound 10 µM
  viability, T/C: 96.2% and 95.3% and 93.4%
Curve of compound
  IC50: > 10 µM

— PubChem BioAssay AID1963846 (Molecular Pharmacology Branch, DTP, NCI, 2024)
